In ChEMBL document CHEMBL1137853, “Discovery of potent and selective beta-homophenylalanine based dipeptidyl peptidase IV inhibitors” (Bioorg Med Chem Lett, 2004):

Molecular target: Dipeptidyl peptidase 4 (Homo sapiens, UniProt P27487)
Sequence (P27487 whole entry): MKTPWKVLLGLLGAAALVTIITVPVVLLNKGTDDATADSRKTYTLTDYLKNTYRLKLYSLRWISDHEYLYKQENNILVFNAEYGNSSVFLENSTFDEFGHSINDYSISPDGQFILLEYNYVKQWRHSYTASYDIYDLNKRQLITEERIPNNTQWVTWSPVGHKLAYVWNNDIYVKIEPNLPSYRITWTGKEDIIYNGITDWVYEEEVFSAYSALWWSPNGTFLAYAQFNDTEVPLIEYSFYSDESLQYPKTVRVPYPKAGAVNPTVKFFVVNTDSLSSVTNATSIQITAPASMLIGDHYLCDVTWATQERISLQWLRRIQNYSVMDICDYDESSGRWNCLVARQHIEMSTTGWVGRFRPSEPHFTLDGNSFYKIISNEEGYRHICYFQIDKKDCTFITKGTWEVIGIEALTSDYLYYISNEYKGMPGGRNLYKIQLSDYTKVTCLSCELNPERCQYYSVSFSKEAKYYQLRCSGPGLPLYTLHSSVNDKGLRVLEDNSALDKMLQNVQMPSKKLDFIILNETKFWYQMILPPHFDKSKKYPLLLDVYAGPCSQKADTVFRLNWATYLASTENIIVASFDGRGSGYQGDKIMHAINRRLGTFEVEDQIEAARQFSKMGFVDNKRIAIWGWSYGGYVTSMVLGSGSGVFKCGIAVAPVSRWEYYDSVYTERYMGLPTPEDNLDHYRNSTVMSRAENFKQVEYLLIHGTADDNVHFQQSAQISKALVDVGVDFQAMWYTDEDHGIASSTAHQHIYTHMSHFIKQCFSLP
Experiment: Inhibitory concentration against Dipeptidyl peptidase IV
Conditions: not given
With N[C@@H](CC(=O)N1CCSC1)c1ccccc1 the IC50 was over 100 µM.
N[C@@H](CC(=O)N1CCSC1)CC1CCCCC1 gave an IC50 of 33 µM.
Compound COc1cc(OC)cc(-c2nc(-c3ccc(Cl)cc3Cl)c(CN(C)C)c(N(C)C)n2)c1 has an IC50 of 0.0001 µM.
In the case of N[C@@H](CC(=O)N1CCSC1)Cc1ccc(F)cc1F, the IC50 is reported as 0.589 µM.
For N[C@@H](CC(=O)N1CCSC1)Cc1cccnc1, the IC50 was 44.9 µM.
With N[C@@H](CC(=O)N1CCSC1)Cc1cccc(F)c1F the IC50 was 9.4 µM.
For N#Cc1ccccc1C[C@@H](N)CC(=O)N1CCSC1, the IC50 was 2.52 µM.
Compound N[C@@H](CC(=O)N1CCSC1)Cc1ccc(Cl)cc1 has an IC50 of 3.03 µM.
N[C@@H](CC(=O)N1CCSC1)Cc1cccc(C(F)(F)F)c1 showed an IC50 of 3.61 µM.
Work on N[C@@H](CC(=O)N1CCSC1)Cc1ccncc1 yielded an IC50 of 51 µM.
With N[C@@H](CC(=O)N1CCSC1)Cc1ccc(F)cc1 the IC50 was 3.28 µM.
Compound N[C@@H](CC(=O)N1CCSC1)Cc1ccccc1F has an IC50 of 0.931 µM.
With N[C@@H](CC(=O)N1CCSC1)Cc1ccc(I)cc1 the IC50 was 10.7 µM.
In the case of N[C@@H](CC(=O)N1CCSC1)Cc1ccccn1, the IC50 is reported as 39.6 µM.
For N[C@@H](CC(=O)N1CCSC1)Cc1c(F)cccc1F, the IC50 was 8.48 µM.
With N[C@@H](CC(=O)N1CCSC1)Cc1ccc(Cl)c(Cl)c1 the IC50 was 2.03 µM.
N#Cc1ccc(C[C@@H](N)CC(=O)N2CCSC2)cc1 showed an IC50 of 14.9 µM.
N[C@@H](CC(=O)N1CCSC1)Cc1cccc(F)c1 showed an IC50 of 2.03 µM.
In the case of N[C@H](CCc1ccccc1)CC(=O)N1CCSC1, the IC50 is reported as 16.5 µM.
Work on N[C@@H](CC(=O)N1CCSC1)CC1CCCC1 yielded an IC50 of 27.5 µM.
Work on N[C@@H](CC(=O)N1CCSC1)Cc1ccc(C(F)(F)F)cc1 yielded an IC50 of 7.69 µM.
Compound N[C@@H](CC(=O)N1CCSC1)Cc1ccc(F)c(F)c1 has an IC50 of 1.7 µM.
N[C@@H](CC(=O)N1CCSC1)Cc1cc(F)ccc1F gave an IC50 of 0.27 µM.
N[C@@H](CC(=O)N1CCSC1)Cc1ccccc1C(F)(F)F showed an IC50 of 2.26 µM.
With N[C@@H](CC(=O)N1CCSC1)Cc1ccoc1 the IC50 was 46.9 µM.
N[C@@H](CC(=O)N1CCSC1)Cc1ccc([N+](=O)[O-])cc1 gave an IC50 of 1.55 µM.
With N#Cc1cccc(C[C@@H](N)CC(=O)N2CCSC2)c1 the IC50 was 8.95 µM.
Compound Cc1ccccc1C[C@@H](N)CC(=O)N1CCSC1 has an IC50 of 0.981 µM.
Work on N[C@@H](CC(=O)N1CCSC1)Cc1ccsc1 yielded an IC50 of 5.7 µM.

System: not listed separately
Experiment: Bioavailability in rat (dose 2 mg/kg p.o.)
Type: ADME, organism-based
Conditions: in vivo, po
For N[C@@H](CC(=O)N1CCSC1)Cc1cc(F)ccc1F, the bioavailability was 2%.
With N[C@@H](CC(=O)N1CCSC1)Cc1cc(F)c(F)cc1F the bioavailability was 3%.

Molecular target: Dipeptidyl peptidase 2 (Homo sapiens, UniProt Q9UHL4)
Experiment: Inhibitory concentration against quiescent cell proline dipeptidase
Conditions: not given
With N[C@@H](CC(=O)N1CCSC1)Cc1ccccc1 the IC50 was over 100 µM.
With N[C@@H](CC(=O)N1CCSC1)Cc1ccc(F)cc1F the IC50 was 56.1 µM.
Compound N#Cc1ccccc1C[C@@H](N)CC(=O)N1CCSC1 has an IC50 of over 100 µM.
With N[C@@H](CC(=O)N1CCSC1)Cc1ccc(Cl)cc1 the IC50 was 36.2 µM.
In the case of N[C@@H](CC(=O)N1CCSC1)Cc1cccc(C(F)(F)F)c1, the IC50 is reported as 24.6 µM.
Compound N[C@@H](CC(=O)N1CCSC1)Cc1ccc(F)cc1 has an IC50 of 67.6 µM.
For N[C@@H](CC(=O)N1CCSC1)Cc1ccccc1F, the IC50 was 49.7 µM.
With N[C@@H](CC(=O)N1CCSC1)Cc1ccc(I)cc1 the IC50 was 5.78 µM.
Compound N[C@@H](CC(=O)N1CCSC1)Cc1ccc(Cl)c(Cl)c1 has an IC50 of 48.5 µM.
N[C@@H](CC(=O)N1CCSC1)Cc1cccc(F)c1 showed an IC50 of 48.5 µM.
N[C@@H](CC(=O)N1CCSC1)Cc1ccc(F)c(F)c1 gave an IC50 of 33.9 µM.
Compound N[C@@H](CC(=O)N1CCSC1)Cc1cc(F)ccc1F has an IC50 of 77.6 µM.
N[C@@H](CC(=O)N1CCSC1)Cc1ccccc1C(F)(F)F showed an IC50 of 82.1 µM.
Work on N[C@@H](CC(=O)N1CCSC1)Cc1ccc([N+](=O)[O-])cc1 yielded an IC50 of 24.3 µM.
In the case of N#Cc1cccc(C[C@@H](N)CC(=O)N2CCSC2)c1, the IC50 is reported as 29.8 µM.
Cc1ccccc1C[C@@H](N)CC(=O)N1CCSC1 showed an IC50 of 92.1 µM.

System: not listed separately
Experiment: Bioavailability in rat (dose 1 mg/kg i.v.)
Type: ADME, organism-based
Conditions: in vivo, iv
With N[C@@H](CC(=O)N1CCSC1)Cc1cc(F)ccc1F the bioavailability was 2%.
In the case of N[C@@H](CC(=O)N1CCSC1)Cc1cc(F)c(F)cc1F, the bioavailability is reported as 3%.

System: not listed separately
Experiment: Half life in rat at 2 mpk po
Type: ADME, organism-based
Conditions: in vivo, 2 mg/kg
N[C@@H](CC(=O)N1CCSC1)Cc1cc(F)ccc1F gave a half-life of 30 min.
With N[C@@H](CC(=O)N1CCSC1)Cc1cc(F)c(F)cc1F the half-life was 66 min.

System: not listed separately
Experiment: Plasma clearance in rat at 2 mpk po
Type: ADME, organism-based
Conditions: 2 mg/kg, read-out: Clearance
For N[C@@H](CC(=O)N1CCSC1)Cc1cc(F)ccc1F, the CL/F was 110 mL/min/kg.
Work on N[C@@H](CC(=O)N1CCSC1)Cc1cc(F)c(F)cc1F yielded a CL/F of 120 mL/min/kg.

System: not listed separately
Experiment: Plasma clearance in rat at 1 mpk iv
Type: ADME, organism-based
Conditions: 1 mg/kg
Compound N[C@@H](CC(=O)N1CCSC1)Cc1cc(F)ccc1F has a clearance of 110 mL/min/kg.
N[C@@H](CC(=O)N1CCSC1)Cc1cc(F)c(F)cc1F gave a clearance of 120 mL/min/kg.

System: not listed separately
Experiment: Half life in rat at 1 mpk iv
Type: ADME, organism-based
Conditions: in vivo, 1 mg/kg
For N[C@@H](CC(=O)N1CCSC1)Cc1cc(F)ccc1F, the half-life was 30 min.
N[C@@H](CC(=O)N1CCSC1)Cc1cc(F)c(F)cc1F showed a half-life of 66 min.
